Measurements published in BigSolDB 2.1.

Nc1cccc(C(=O)O)c1O
solubility (mole fraction)
Conditions	293.2 K	298.2 K	303.2 K	308.2 K	313.2 K
in ethanol	0.000186	0.000238	0.000285	0.000332	0.000386
in water	0.000113	0.000126	0.000141	0.00016	0.000178
